The source of these data is PubChem BioAssay AID651581 (Sanford-Burnham Center for Chemical Genomics, 2012).

Broadly, the IC50 is the concentration that gives 50% inhibition.

Active and inactive are the calls of the source. No rule for the calls is given here.

In assay [1] the target is Endothelial PAS domain-containing protein 1 (Homo sapiens) (UniProt Q99814). The experiment in a line: potency against HIF reporters across cell lines – luminescence, panel, selectivity assay for HIF-2a inhibitor project, dose response (AID 651581). Particulars: human cell HIF reporter.
The target of assay [2] is Hypoxia-inducible factor 1-alpha (Homo sapiens) (UniProt Q16665). The description is as above. Particulars: human cell HIF reporter, HIF-1a.
Sequence of Hypoxia-inducible factor 1-alpha (Homo sapiens) (Q16665 whole entry, looked up): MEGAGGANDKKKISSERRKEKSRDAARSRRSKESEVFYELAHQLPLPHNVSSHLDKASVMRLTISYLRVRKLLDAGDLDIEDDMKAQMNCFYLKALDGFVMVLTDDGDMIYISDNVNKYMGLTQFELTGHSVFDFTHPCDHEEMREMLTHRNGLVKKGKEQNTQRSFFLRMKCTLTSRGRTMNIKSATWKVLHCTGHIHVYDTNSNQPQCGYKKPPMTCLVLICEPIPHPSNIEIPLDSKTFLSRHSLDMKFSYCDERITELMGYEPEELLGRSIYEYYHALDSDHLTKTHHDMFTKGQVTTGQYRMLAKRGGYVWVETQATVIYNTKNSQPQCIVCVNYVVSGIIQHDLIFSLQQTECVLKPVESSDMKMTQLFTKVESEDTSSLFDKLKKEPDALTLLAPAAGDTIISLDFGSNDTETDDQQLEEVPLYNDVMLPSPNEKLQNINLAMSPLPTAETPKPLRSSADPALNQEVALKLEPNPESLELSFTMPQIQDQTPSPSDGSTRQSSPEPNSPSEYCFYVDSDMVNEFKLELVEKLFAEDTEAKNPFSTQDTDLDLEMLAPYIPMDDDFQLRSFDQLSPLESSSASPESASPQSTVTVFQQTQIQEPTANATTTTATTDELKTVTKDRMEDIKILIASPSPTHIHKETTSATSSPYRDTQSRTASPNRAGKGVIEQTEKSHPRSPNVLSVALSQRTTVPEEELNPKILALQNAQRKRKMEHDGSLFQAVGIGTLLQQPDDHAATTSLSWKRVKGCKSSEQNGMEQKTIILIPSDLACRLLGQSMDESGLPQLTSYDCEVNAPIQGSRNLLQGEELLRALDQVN

Regarding `O=C1C=C(c2ccc(Cl)cc2)C(=O)N1Nc1ccccc1`, in assay [1] (HIF-2a PANC, mean of runs), the IC50 result is “inactive”. For the same molecule, the IC50 was 29.9 µM in assay [1] (HIF-2a PANC, run 1); 75.9 µM in assay [1] (HIF-2a PANC, run 2); 5.66 µM in assay [1] (HIF-2a, mean of runs); 5.69 µM in assay [1] (HIF-2a, run 1); 5.63 µM in assay [1] (HIF-2a, run 2); 25.8 µM in assay [2] (mean of runs). The results for the IC50 in assay [2] (run 1) and in assay [2] (run 2) were 22.8 µM and 28.9 µM, respectively.
Regarding `CCOC(=O)c1sc(NC(=O)c2cc3c(s2)CCC(C)C3)nc1C` (stereo unspecified), the IC50 in assay [1] (HIF-2a PANC, run 1) is < 1 µM; in assay [1] (HIF-2a PANC, run 2), > 99 µM; in assay [1] (HIF-2a, run 1), 0.2 µM; in assay [1] (HIF-2a, run 2), > 99 µM; in assay [2] (run 1), 20.5 µM; in assay [2] (run 2), > 99 µM.
As to `Cc1cc(NC(=O)c2ccccc2)c(Cl)cc1N`, the IC50 entry in assay [1] (HIF-2a PANC, mean of runs) was “inactive”. Besides, the IC50 in assay [1] (HIF-2a PANC, run 1) was 10.1 µM; in assay [1] (HIF-2a PANC, run 2), 19.5 µM; in assay [1] (HIF-2a, mean of runs), 2.75 µM; in assay [1] (HIF-2a, run 1) it was 2.56 µM; in assay [1] (HIF-2a, run 2), 2.94 µM; in assay [2] (mean of runs), 11.5 µM. For the same molecule, the figures for the IC50 in assay [2] (run 1) and in assay [2] (run 2) were 10 µM and 12.9 µM, respectively.
On to `O=C(Nc1ccccc1)c1nnsc1S(=O)(=O)c1ccc(Cl)cc1`, for which the IC50 result in assay [1] (HIF-2a PANC, mean of runs) was “inactive”. The IC50 in assay [1] (HIF-2a PANC, run 1) is 44.3 µM; in assay [1] (HIF-2a PANC, run 2) it was 80.5 µM; in assay [1] (HIF-2a, mean of runs), 7.71 µM; in assay [1] (HIF-2a, run 1) it was 7.38 µM; in assay [1] (HIF-2a, run 2), 8.04 µM; in assay [2] (mean of runs), 28.6 µM. For the same molecule, the IC50 in assay [2] (run 1) is 27 µM; in assay [2] (run 2), 30.2 µM.
On to `Cc1ccc(S(=O)(=O)Nc2cccc3cccnc23)c([N+](=O)[O-])c1`, for which the IC50 was > 99 µM (inactive) in assay [1] (HIF-2a PANC, mean of runs); > 99 µM in assay [1] (HIF-2a PANC, run 1); > 99 µM in assay [1] (HIF-2a PANC, run 2); 3.76 µM in assay [1] (HIF-2a, mean of runs); 3.87 µM in assay [1] (HIF-2a, run 1); 3.66 µM in assay [1] (HIF-2a, run 2). For the same molecule, the IC50 in assay [2] (run 1) and in assay [2] (run 2) was > 99 µM in each case.
As for `Cc1ccc(NC(=O)c2cc(N3C(=O)C=CC3=O)ccc2N2CCOCC2)cc1`, the IC50 in assay [1] (HIF-2a PANC, mean of runs) is > 99 µM (inactive); in assay [1] (HIF-2a PANC, run 1) it was > 99 µM; in assay [1] (HIF-2a PANC, run 2), > 99 µM; in assay [1] (HIF-2a, mean of runs), 9.77 µM; in assay [1] (HIF-2a, run 1), 9.64 µM; in assay [1] (HIF-2a, run 2), 9.9 µM. The IC50 in assay [2] (run 1) was 64.3 µM; in assay [2] (run 2), > 99 µM.
In the case of `CC(=O)Nc1ccc(OC(=O)N2CCCCC2)cc1`, the IC50 was 2.8 µM in assay [1] (HIF-2a PANC, mean of runs); 1.96 µM in assay [1] (HIF-2a PANC, run 1); 3.65 µM in assay [1] (HIF-2a PANC, run 2); 2.33 µM in assay [1] (HIF-2a, mean of runs); 2.32 µM in assay [1] (HIF-2a, run 1); 2.34 µM in assay [1] (HIF-2a, run 2). In addition, the IC50 in assay [2] (mean of runs) is 11.4 µM; in assay [2] (run 1), 11.5 µM; in assay [2] (run 2) it was 11.2 µM.
Take `CCOC(=O)Cc1csc(N/N=C/c2ccc(C(F)(F)F)cc2)n1`: the half-maximal inhibitory concentration (IC50) in assay [1] (HIF-2a PANC, mean of runs) was 0.711 µM; in assay [1] (HIF-2a PANC, run 1), 0.556 µM; in assay [1] (HIF-2a PANC, run 2), 0.866 µM; in assay [1] (HIF-2a, run 1) it was > 99 µM; in assay [1] (HIF-2a, run 2), 0.221 µM; in assay [2] (run 1), < 10 µM. In addition, the IC50 in assay [2] (run 2) is > 99 µM.
On to `CC(=O)Nc1ccc(NC(=O)c2oc3cc(C)c(C)cc3c2C)cc1`, for which the IC50 in assay [1] (HIF-2a PANC, run 1) was > 99 µM; in assay [1] (HIF-2a PANC, run 2), 16.5 µM; in assay [1] (HIF-2a, mean of runs) it was 1.64 µM; in assay [1] (HIF-2a, run 1), 1.62 µM; in assay [1] (HIF-2a, run 2) it was 1.67 µM; in assay [2] (run 1) it was 2.91 µM. Also, the IC50 in assay [2] (run 2) amounted to 1.65 µM. Moreover, the IC50 entry in assay [2] (mean of runs) is “inactive”.
For the molecule `CC(=O)/C=C1/C(=O)Nc2ccccc21`, the IC50 in assay [1] (HIF-2a PANC, mean of runs) was > 99 µM (inactive); in assay [1] (HIF-2a PANC, run 1), > 99 µM; in assay [1] (HIF-2a PANC, run 2) it was > 99 µM; in assay [1] (HIF-2a, run 1) it was 13.9 µM; in assay [1] (HIF-2a, run 2) it was 14.2 µM; in assay [2] (run 1) it was 32.6 µM. For the same molecule, the IC50 in assay [2] (run 2) is 26.2 µM. Further, the IC50 entry in assay [1] (HIF-2a, mean of runs) was “inactive”; in assay [2] (mean of runs), “inactive”.
`CC(=O)Nc1ccc(NC(=O)c2ccc(-c3ccnn3C)c3ccoc23)cc1`: the IC50 was 1.85 µM in assay [1] (HIF-2a PANC, mean of runs); 2.03 µM in assay [1] (HIF-2a PANC, run 1); 1.67 µM in assay [1] (HIF-2a PANC, run 2); 0.858 µM in assay [1] (HIF-2a, mean of runs); 0.938 µM in assay [1] (HIF-2a, run 1); 0.777 µM in assay [1] (HIF-2a, run 2). Moreover, the IC50 in assay [2] (run 1) was 3.89 µM; in assay [2] (run 2), > 99 µM.
For the molecule `CCOC(=O)C1CCN(C(=O)Nc2ccc3snnc3c2)CC1`, the IC50 result in assay [1] (HIF-2a PANC, mean of runs) was “inactive”; in assay [1] (HIF-2a, mean of runs), “inactive”. The IC50 in assay [1] (HIF-2a PANC, run 1) is 19.4 µM; in assay [1] (HIF-2a PANC, run 2), 56.8 µM; in assay [1] (HIF-2a, run 1), 8.45 µM; in assay [1] (HIF-2a, run 2), 14.8 µM; in assay [2] (run 1) it was > 99 µM; in assay [2] (run 2), > 99 µM.
Take `COC(=O)c1cccc(-c2noc(-c3ccccc3F)n2)c1`: the IC50 is 9.77 µM in assay [1] (HIF-2a PANC, mean of runs); 9.59 µM in assay [1] (HIF-2a PANC, run 1); 9.94 µM in assay [1] (HIF-2a PANC, run 2); < 10 µM in assay [1] (HIF-2a, mean of runs); < 10 µM in assay [1] (HIF-2a, run 1); < 10 µM in assay [1] (HIF-2a, run 2). For the same molecule, the IC50 in assay [2] (run 1) and in assay [2] (run 2) was > 99 µM each time.
